According to patent US10888518B2, “Orodispersible tablet containing estetrol” (ESTETRA SPRL, priority 2015, dated 2021):

Assays:
[1] = humans, cited from earlier work
[2] = system: vagina, uterus, body weight, bone mass, bone strength, hot flushes, ovulation; settings: rat models; dose-dependent; cited from earlier work
estrogen receptors = settings: in vitro; cited from earlier work
[3] = target: T1, sex hormone binding globulin (SHBG) (Homo sapiens, UniProt P04278); settings: in vitro; cited from earlier work
T1 sequence (P04278 30-402): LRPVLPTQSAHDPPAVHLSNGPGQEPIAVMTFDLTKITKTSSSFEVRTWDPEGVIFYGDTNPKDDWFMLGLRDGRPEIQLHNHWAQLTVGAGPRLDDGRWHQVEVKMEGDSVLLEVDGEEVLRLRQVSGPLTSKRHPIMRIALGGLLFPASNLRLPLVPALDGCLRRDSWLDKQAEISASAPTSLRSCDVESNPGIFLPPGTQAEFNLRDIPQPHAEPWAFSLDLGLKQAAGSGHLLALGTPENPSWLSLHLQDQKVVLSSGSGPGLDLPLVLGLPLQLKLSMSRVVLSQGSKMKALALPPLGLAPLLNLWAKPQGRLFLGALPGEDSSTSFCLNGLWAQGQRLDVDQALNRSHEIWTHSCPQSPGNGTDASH

DMBA mammary tumour = DMBA mammary tumour model; extent and dose level similar to tamoxifen and ovariectomy; cited from earlier work
[4] = Randomized, open-label, two-period, cross-over pharmacokinetic study, sublingual versus oral estetrol; format: in vivo, human; settings: 10 mg estetrol, healthy female volunteers
Protocol: A randomized, open-label, two-period, cross-over, pharmacokinetic study is conducted to compare sublingual bioavailability of 10 mg estetrol administered in one 80 mg tablet with oral availability of estetrol contained in a 83 mg tablet containing 10 mg estetrol. These tablets are administered sublingually and orally to healthy female volunteers under fasting conditions.
Ten healthy female subjects are selected on the basis of the following criteria: age of 45-65 years (inclusive), nonsmokers or past smokers (at least 6 months before dosing), body-mass index (BMI)=18.5 to 30 kg/m^2 (inclusive at the time of the screening).
At the start of the first and the second period of the study, between 07:00 am and 07:28 am, 5 subjects receive a single dose of the sublingual formulation of estetrol by administering one estetrol tablet (tablet weight 80 mg; 10 mg estetrol) and 5 subjects receive a single oral dose of the oral estetrol formulation by administering one estetrol tablet (tablet weight 83 mg; 10 mg estetrol), ingested together with 200 ml water. […]
The estetrol concentration in the collected blood samples is determined by means of HPLC/MS/MS. The concentrations of glucuronided estetrol (D-ring) in the urine samples is also determined with the help of HPLC/MS/MS.

[5] = system: human breast cancer cells; settings: in vitro; cited from earlier work
production of SHBG = settings: in vitro; cited from earlier work

C[C@]12CC[C@@H]3c4ccc(O)cc4CC[C@H]3[C@@H]1[C@@H](O)[C@@H](O)[C@@H]2O [estetrol, 1,3,5 (10)-estratrien-3,15α,16α,17β-tetrol]
Oral bioavailability ([1]; oral): high and dose-proportional
Terminal elimination half-life [1]: about 28 hours
Estrogenic effects on vagina, uterus, body weight, bone mass, bone strength, hot flushes and ovulation [2]: exhibited estrogenic effects
Binding selectivity for estrogen receptors (estrogen receptors): binds highly selective to the estrogen receptors with preference for the ERα form of the receptor
Binding to SHBG [3]: does not bind
Tumour development (DMBA mammary tumour): prevented tumour development
Bioavailability of sublingually administered estetrol versus orally administered estetrol ([4]; 80 mg sublingual tablet vs 83 mg oral tablet, fasting): comparable or even superior to orally administered estetrol
Impact on a liver function parameter, sublingual versus oral ([4]; sublingual): less impact on a liver function parameter
Effect in the presence of 17β-estradiol [5]: anti-estrogenic effect
Stimulation of the production of SHBG (production of SHBG): does not stimulate the production of SHBG
